Source: PMC9653733, “Characterization of a Potent, Selective, and Safe Inhibitor, Ac15(Az8)2, in Reversing Multidrug Resistance Mediated by Breast Cancer Resistance Protein (BCRP/ABCG2)” (International Journal of Molecular Sciences, 2022)
Several values for one entry are separate records, joined by “and”; a condition that tells them apart may be missing. Equal entries are not always repeated.

Columns and labels:
BCRP = target: T1, BCRP (Homo sapiens, UniProt Q9UNQ0, R482G); assay: Intracellular Ac15(Az8)2 level in S1 and S1M180 (BCRP substrate test, UPLC-MS/MS); assay type: cell-based
T1 construct: endogenous in cells; host or cells: S1M180 (human colon carcinoma, mitoxantrone-selected)
T1 sequence (Q9UNQ0 1-655 R482G): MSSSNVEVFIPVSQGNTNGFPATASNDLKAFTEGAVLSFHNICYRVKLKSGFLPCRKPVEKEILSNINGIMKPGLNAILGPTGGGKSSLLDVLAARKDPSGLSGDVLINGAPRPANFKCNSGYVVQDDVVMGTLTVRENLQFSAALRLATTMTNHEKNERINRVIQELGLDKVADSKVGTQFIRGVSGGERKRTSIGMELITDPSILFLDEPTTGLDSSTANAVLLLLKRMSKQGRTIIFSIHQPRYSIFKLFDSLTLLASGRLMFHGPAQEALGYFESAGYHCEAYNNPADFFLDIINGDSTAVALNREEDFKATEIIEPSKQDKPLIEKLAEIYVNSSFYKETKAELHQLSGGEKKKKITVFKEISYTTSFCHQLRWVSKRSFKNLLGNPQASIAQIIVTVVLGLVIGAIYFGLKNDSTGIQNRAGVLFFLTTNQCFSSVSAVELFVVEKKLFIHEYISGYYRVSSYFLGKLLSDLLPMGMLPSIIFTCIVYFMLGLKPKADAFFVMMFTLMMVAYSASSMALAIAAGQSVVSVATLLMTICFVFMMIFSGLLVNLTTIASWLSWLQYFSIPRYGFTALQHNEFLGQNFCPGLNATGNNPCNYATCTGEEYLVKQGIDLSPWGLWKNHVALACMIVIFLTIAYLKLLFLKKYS
Procedure: Figure 2 Effect of Ac15(Az8)2 on intracellular accumulation of BCRP-substrates in S1 and S1M180 cells. Cells were pre-treated with 0.1% DMSO, 100 nM, or 1000 nM Ac15(Az8)2 and then incubated with BCRP substrates. (A) Topotecan accumulation. (B) DOX accumulation. The intracellular level of drug after treatment was normalized to that of S1 cells after incubating with 0.1% DMSO. Student unpaired two-tailed t-test was conducted as indicated (** p < 0.01, *** p < 0.001). (C) To measure DOX efflux, S1M180 cells were pre-incubated with medium containing 20 μM DOX for 1 h at 37 °C. Cells were then washed and further incubated with or without 1 µM of Ac15(Az8)2. At 0, 5, 10, 30, 60, 120, and 180 min, the cells were harvested to measure the intracellular DOX level. (D) To determine intracellular Ac15(Az8)2 concentration, 1 × 10^7 cells were incubated with 1 µM of Ac15(Az8)2 at 37 °C for 2 h. Cells were then washed with ice-cold PBS. To the cell pellet, acetonitrile was added to lyse the cells, and the supernatant was saved for Ac15(Az8)2 determination using UPLC–MS/MS.
BCRP is an efflux transporter with broad substrate selectivity. In order to study whether Ac15(Az8)2 is itself a substrate of BCRP, its intracellular level was measured after treating the S1 or S1M180 cells for 2 h.

[1] = Pharmacokinetics of Ac15(Az8)2 in mice; assay type: in vivo; conditions: female, Balb/c, mouse, ip, 45 mg/kg I.P., plasma
Procedure: Ac15(Az8)2 and topotecan in plasma were analyzed by UPLC–MS/MS. UPLC (Acquity Waters) and triple quadrupole mass analyzer (Quattro Ultima) with an electrospray ionization source in the positive mode were used to quantify Ac15(Az8)2 and topotecan. Acquity UPLC BEH C8 and C18 column (1.7 µm 2.1 × 50 mm) from Waters was used to separate Ac15(Az8)2 and topotecan, respectively. Mobile phases used for Ac15(Az8)2 analysis were water and acetonitrile. Ac15(Az8)2 and its internal standard Ac15(Az5)2 (Figure S2) were monitored at m/z 608 → m/z 149 and m/z 594 → […], respectively. Mobile phases used for topotecan analysis were water and methanol. Topotecan and its internal standard tetracycline were monitored at m/z 422 → m/z 377 and m/z 445 → m/z 410, respectively.
Female Balb/c mice at 4–6 weeks were used for the pharmacokinetic studies. Ac15(Az8)2 at 4 mg/mL was prepared in 10% NMP, 10% Cremophor-EL and 80% H2O. Topotecan was dissolved in H2O at 1 mg/mL, and 45 mg/kg Ac15(Az8)2 was administered through intraperitoneal (I.P.) injection. Blood was collected at 10, 30, 60, 70, 90, 120, 180, 240, 300, 480, 720 and 1440 min by cardiac puncture and stored in heparinized tubes for centrifugation at 16,000 g for 5 min. For topotecan pharmacokinetic study, 2 mg/kg topotecan was I.P. administered one hour after 45 mg/kg Ac15(Az8)2 or solvent injection. Blood was collected at 10, 30, 60, 120, 240 and 480 min post-topotecan administration. All animal studies were approved by the Animal Subjects Ethics Sub-committee of the Hong Kong Polytechnic University and performed in accordance with the Cap340 Animal License of the Department of Health in Hong Kong.

BCRP (MCF7-MX100 cells) = conditions: concentration reducing IC50 of anticancer drug by half; mean ± S.D.; ref [42]; read-out: EC50 needed for reversing BCRP-mediated topotecan resistance, MCF7-MX100; cited from earlier work
S1M180 cells = assay: Cytotoxicity of anticancer drugs in S1M180 (0.1% DMSO); assay type: cell-based, human
Procedure: In total, 6500 cells of S1M180 or MCF7-MX100 were incubated with various doses of topotecan or DOX and modulators. The final volume in each well of 96-well plates was 200 µL. The plates were then incubated for 5 days at 37 °C. The CellTiter 96 AQueous Assay (Promega) was used to measure cell proliferation. According to the manufacturer’s instructions, MTS (2 mg/mL) and PMS (0.92 mg/mL) were mixed in a ratio of 20:1. An aliquot (10 μL) of the freshly prepared MTS/PMS mixture was added into each well, and the plate was incubated for 2 h at 37 °C. Optical absorbance at 490 nm was then recorded with microplate absorbance reader (Bio-Rad). IC50 values were calculated from the dose-response curves of MTS assays (Prism 4.0).

SMILES | Intracellular level of Ac15(Az8)2 in S1M180 higher than in S1 (BCRP; 1 µM, 2 h, 37 °C) | Transport substrate of BCRP (BCRP; from intracellular levels in S1 vs S1M180) | AUC(0-inf) [1] [ng·h/mL] | Cmax [1] [ng/mL] | Tmax [1] [h] | half-life ([1]; read-out: Half-life (E-phase) (converted)) [h] | EC50 (BCRP (MCF7-MX100 cells)) | IC50 (S1M180 cells; Homo sapiens, S1-M1-80, S1M180 + 0.1% DMSO, mean ± S.D., n = 3, read-out: IC50 of topotecan) [nM] | RF (Relative Fold), topotecan (S1M180 cells; S1M180 + 0.1% DMSO (reference))
COC(=O)c1cccc(COc2c(-c3ccc(OCCOCCn4cc(CN(Cc5ccccc5)Cc5cn(CCOCCOc6ccc(-c7oc8ccccc8c(=O)c7OCc7cccc(C(=O)OC)c7)cc6)nn5)nn4)cc3)oc3ccccc3c2=O)c1 [Ac15(Az8)2] | about 20% | not a transport substrate of BCRP | 83500 | 15700 | 3 | 10.6 | 3 nM and 3.3 nM |  | 
CC[C@@]1(O)C(=O)OCc2c1cc1n(c2=O)Cc2cc3c(CN(C)C)c(O)ccc3nc2-1 [topotecan] |  |  |  |  |  |  |  | 12400 | 1.0
